Article PMC5746060, “General and Modular Strategy for Designing Potent, Selective, and Pharmacologically Compliant Inhibitors of Rhomboid Proteases” (Cell Chemical Biology, 2017)
Starred links: 1 amine or outer side, 2 acyl side, 3 side chain; linkers in the order of their positions; H or OH if unused. Non-standard residues stand in square brackets, D forms with d. Residues, ends and D or L forms follow the SMILES beside them. *: point of attachment. NH(4-phenylbutyl) = c1ccc(CCCCN*)cc1; X1 = C[C@H](N[*:1])C(=O)C(=O)[*:2]; NHPhenethyl = c1ccc(CCN*)cc1

Tests used:
EcGlpG = molecular target: T1, EcGlpG (Escherichia coli, UniProt P09391); test: activity-based probe competition assay, rhomboid panel; type: biochemical, E. coli; conditions: 50 μM and 0.5 μM; outcompeted the ABP even at 500 nM
T1 construct: made in house; host or cells: E. coli C41(DE3)
Text: (§1) Any enzyme inhibitors to be used as specific tools for cell biology or as starting points for drug development must show sufficient level of selectivity toward their intended target. This is particularly important for compounds that react with the catalytic nucleophile common to many serine hydrolases. […] To map the selectivity of peptidyl ketoamides more objectively and widely, we employed activity-based probe (ABP) competition assays that enable a more general and substrate-independent measurement of inhibitory potency, because they rely solely on the competition between a fluorescently labeled activity-based probe and the tested inhibitor ([Nguyen et al., 2015], [Serim et al., 2012]). […]
(§2) Figure 5 Selectivity of Peptidyl Ketoamides (A) Selectivity of compounds 9, 10, and 11 for nine rhomboid proteases was profiled using activity-based probe competition assay at 50 μM and 0.5 μM concentration. […] (B) Selectivity of compounds 9, 10, and 11 against human serine hydrolases was analyzed using EnPlex as described ([Bachovchin et al., 2014]).
(§3) For inhibitor selectivity profiling against rhomboid proteases ([Wolf et al., 2015]), 400 ng of a purified protein preparation of E. coli GlpG was diluted in 30 μL of reaction buffer (20 mM HEPES, pH 7.4, with 0.05% (w/v) DDM). […] Gels were scanned on a Typhoon Trio+ and analyzed using ImageJ. […]

MjROM = test: as above; type: biochemical, Methanocaldococcus jannaschii; conditions: 50 μM and 0.5 μM; outcompeted the ABP even at 500 nM
Text: as §1, §2, §3

[1] = molecular target: dipeptidylpeptidase 7 (DPP7) (Homo sapiens, UniProt Q9UHL4); test: EnPlex multiplex ABP competition profiling; type: biochemical; conditions: off-target hit; concentration range where they inhibit rhomboid proteases
Experimental: (§4) Figure 5 Selectivity of Peptidyl Ketoamides (A) Selectivity of compounds 9, 10, and 11 for nine rhomboid proteases was profiled using activity-based probe competition assay at 50 μM and 0.5 μM concentration. The upper limit of enzyme concentration was 0.4 μM. (B) Selectivity of compounds 9, 10, and 11 against human serine hydrolases was analyzed using EnPlex as described ([Bachovchin et al., 2014]).
(§5) We next examined peptidyl ketoamides for their possible off-target effects on other serine proteases. To get a representative picture of the selectivity of peptidyl ketoamides, we employed a recently developed EnPlex technology, which allows multiplex analysis of ABP competition with about 100 human serine hydrolases, mostly proteases ([Bachovchin et al., 2014]).
(§6) For inhibitor selectivity profiling against rhomboid proteases ([Wolf et al., 2015]), 400 ng of a purified protein preparation of E. coli GlpG was diluted in 30 μL of reaction buffer (20 mM HEPES, pH 7.4, with 0.05% (w/v) DDM). For other rhomboids, amounts were taken that gave similar labeling intensity during profiling. Rhomboids were incubated for 30 min at room temperature with the indicated concentration of compound, 100 μM DCI as positive control, or an equal volume of DMSO as negative control. Next, TAMRA-FP serine hydrolase probe (Thermo Fisher #88318) was added to a final concentration of 1 ìM and incubated for 2 h at 37°C in the dark. The reaction was stopped by addition of 4× Laemmli buffer and the reaction mixture was resolved on 15% SDS-PAGE. Gels were scanned on a Typhoon Trio+ and analyzed using ImageJ. The intensity of each rhomboid protease band calculated by ImageJ was normalized against its corresponding DMSO-treated counterpart (100% activity) to indicate the residual activity left after inhibition. The remaining activity was used to calculate the percentage of inhibition depicted in the heatmap. Selectivity profiles against human serine hydrolases were determined by EnPlex as described previously ([Bachovchin et al., 2014]).

[2] = test system: about 100 human serine hydrolases; test: EnPlex multiplex ABP competition profiling; type: biochemical; conditions: concentration range where the ketoamides inhibit rhomboid proteases
Experimental: as §4, §5, §6

AarA = molecular target: T2, AarA (Providencia stuartii, UniProt P46116); test: activity-based probe competition assay, rhomboid panel; type: biochemical; conditions: 50 μM and 0.5 μM; outcompeted the ABP even at 500 nM
T2 construct: made in house
T2 sequence (P46116 1-281): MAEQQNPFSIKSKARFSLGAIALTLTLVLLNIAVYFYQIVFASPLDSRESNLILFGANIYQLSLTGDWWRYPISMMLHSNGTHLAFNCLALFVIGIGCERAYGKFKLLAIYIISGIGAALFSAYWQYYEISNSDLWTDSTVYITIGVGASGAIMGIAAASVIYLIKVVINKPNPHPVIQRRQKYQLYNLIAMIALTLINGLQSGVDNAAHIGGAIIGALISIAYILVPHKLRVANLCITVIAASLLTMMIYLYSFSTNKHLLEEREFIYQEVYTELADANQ
Text: (§7) Any enzyme inhibitors to be used as specific tools for cell biology or as starting points for drug development must show sufficient level of selectivity toward their intended target. This is particularly important for compounds that react with the catalytic nucleophile common to many serine hydrolases. […] To map the selectivity of peptidyl ketoamides more objectively and widely, we employed activity-based probe (ABP) competition assays that enable a more general and substrate-independent measurement of inhibitory potency, because they rely solely on the competition between a fluorescently labeled activity-based probe and the tested inhibitor ([Nguyen et al., 2015], [Serim et al., 2012]). The assays we employed used fluorophosphonate ABPs that target the catalytic serine of a wide-range of serine hydrolases ([Bachovchin et al., 2014]), including rhomboids ([Xue et al., 2012]), and are thus very practical general detection reagents even for serine hydrolases for which sensitive substrates might not be available.
as §4, §6

DmRho1 = molecular target: T3, DmRho1 (Drosophila melanogaster, UniProt P20350); test: as above; type: biochemical; conditions: 50 μM and 0.5 μM
T3 construct: made in house
T3 sequence (P20350 1-355): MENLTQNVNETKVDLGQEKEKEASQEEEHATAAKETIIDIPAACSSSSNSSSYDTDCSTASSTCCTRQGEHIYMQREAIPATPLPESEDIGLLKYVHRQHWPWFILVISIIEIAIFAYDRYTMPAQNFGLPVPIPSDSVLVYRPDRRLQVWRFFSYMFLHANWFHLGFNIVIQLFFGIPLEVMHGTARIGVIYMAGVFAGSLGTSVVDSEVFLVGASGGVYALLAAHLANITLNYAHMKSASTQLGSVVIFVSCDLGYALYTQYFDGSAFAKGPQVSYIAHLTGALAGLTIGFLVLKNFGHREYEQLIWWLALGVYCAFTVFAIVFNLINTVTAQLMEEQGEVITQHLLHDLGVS
Text: as §7, §4, §6

MmRHBDL3 = molecular target: T4, MmRHBDL3 (Mus musculus, UniProt P58873); test: as above; type: biochemical; conditions: 50 μM and 0.5 μM
T4 construct: made in house
T4 sequence (P58873 1-404): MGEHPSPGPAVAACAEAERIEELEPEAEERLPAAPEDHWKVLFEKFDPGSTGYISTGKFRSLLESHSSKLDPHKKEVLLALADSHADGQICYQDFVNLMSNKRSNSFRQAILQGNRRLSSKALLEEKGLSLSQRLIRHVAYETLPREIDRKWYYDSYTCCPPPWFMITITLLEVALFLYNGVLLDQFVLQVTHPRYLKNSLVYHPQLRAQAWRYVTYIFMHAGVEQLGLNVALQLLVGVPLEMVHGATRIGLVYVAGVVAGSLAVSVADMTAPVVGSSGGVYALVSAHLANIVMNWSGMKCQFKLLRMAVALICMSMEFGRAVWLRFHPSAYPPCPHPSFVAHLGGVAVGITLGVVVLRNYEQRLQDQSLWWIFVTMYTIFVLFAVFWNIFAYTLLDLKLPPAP
Text: as §7, §4, §6

HiGlpG = molecular target: T5, HiGlpG (Haemophilus influenzae, UniProt P44783); test: as above; type: biochemical; conditions: 50 μM and 0.5 μM; outcompeted the ABP even at 500 nM
T5 construct: made in house
Text: as §7, §4, §6

AaROM = test: as above; type: biochemical, Aquifex aeolicus; conditions: 50 μM and 0.5 μM
Text: as §1, §2, §3

VcROM = test: as above; type: biochemical, Vibrio cholerae; conditions: 50 μM and 0.5 μM; outcompeted the ABP even at 500 nM
Text: as §1, §2, §3

T5 sequence (P44783 whole entry): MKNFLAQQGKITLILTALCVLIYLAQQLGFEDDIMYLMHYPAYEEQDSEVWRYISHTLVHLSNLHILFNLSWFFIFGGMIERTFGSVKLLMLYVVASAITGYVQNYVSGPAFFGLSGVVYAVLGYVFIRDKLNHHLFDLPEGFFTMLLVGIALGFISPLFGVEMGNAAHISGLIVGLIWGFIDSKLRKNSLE
T1 sequence (P09391 whole entry): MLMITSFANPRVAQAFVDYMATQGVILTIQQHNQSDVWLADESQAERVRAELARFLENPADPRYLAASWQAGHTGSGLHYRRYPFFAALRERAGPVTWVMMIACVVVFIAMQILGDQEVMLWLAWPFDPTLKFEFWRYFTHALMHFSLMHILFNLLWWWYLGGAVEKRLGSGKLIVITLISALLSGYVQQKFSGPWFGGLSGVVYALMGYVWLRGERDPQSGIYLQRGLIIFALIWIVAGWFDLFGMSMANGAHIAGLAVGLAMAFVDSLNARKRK

| Structure (SMILES) | competition with ABP labeling of EcGlpG (EcGlpG) | competition with ABP labeling of MjROM (MjROM) | inhibition of DPP7 (EnPlex) [1] | inhibition of human serine hydrolases (EnPlex selectivity profile) [2] | competition with ABP labeling of AarA (AarA) | competition with ABP labeling of DmRho1 (DmRho1) | competition with ABP labeling of MmRHBDL3 (MmRHBDL3) | competition with ABP labeling of HiGlpG (HiGlpG) | competition with ABP labeling of AaROM (AaROM) | competition with ABP labeling of VcROM (VcROM) |
| --- | --- | --- | --- | --- | --- | --- | --- | --- | --- | --- |
| CC(=O)N[C@@H](CCCNC(=N)N)C(=O)N[C@H](C(=O)N[C@@H](CCCNC(=N)N)C(=O)N[C@@H](Cc1c[nH]cn1)C(=O)N[C@@H](C)C(=O)C(=O)NCCCCc1ccccc1)C(C)C [compound 11, Ac-RVRHA-CONH-phenylbutyl] (Ac-RVRH[X1]-{NH(4-phenylbutyl)}) | potently competed | potently competed | the sequence related dipeptidylpeptidase 7 (DPP7) | fail to inhibit most of the tested human serine hydrolases | potently competed | none of these compounds were able to compete | none of these compounds were able to compete | potently competed | none of these compounds were able to compete | potently competed |
| CC(=O)N[C@@H](CCCNC(=N)N)C(=O)N[C@H](C(=O)N[C@@H](CCCNC(=N)N)C(=O)N[C@@H](Cc1c[nH]cn1)C(=O)N[C@@H](C)C(=O)C(=O)NCCc1ccccc1)C(C)C [compound 9, Ac-RVRHA-CONH-phenylethyl] (Ac-RVRH[X1]-NHPhenethyl) | potently competed | potently competed | the sequence related dipeptidylpeptidase 7 (DPP7) | fail to inhibit most of the tested human serine hydrolases | potently competed | none of these compounds were able to compete | none of these compounds were able to compete | potently competed | none of these compounds were able to compete | potently competed |
